Values of other authors as cited in patent US12396997B2, “Methods of treatment with an iboga alkaloid” (priority 2022, dated 2025).

System: N-methyl-D-aspartate, kappa and mu opioid, sigma-1 and -2, nicotinic acetylcholine, serotonin transporter, and dopamine transporter
Details: literature; cited from earlier work

Structure (SMILES): CC[C@H]1CC2C[C@H]3c4[nH]c5ccc(O)cc5c4CCN(C2)C13 [noribogaine]
- Affinity for neurotransmitter receptors: moderate-to-weak affinity
